{"source": "paper PMC8933034", "about": "“6-Amino-2,4,5-trimethylpyridin-3-ol and 2-amino-4,6-dimethylpyrimidin-5-ol derivatives as selective fibroblast growth factor receptor 4 inhibitors: design, synthesis, molecular docking, and anti-hepatocellular carcinoma efficacy evaluation” (Journal of Enzyme Inhibition and Medicinal Chemistry, 2022)", "key": {"[1]": {"target": "T1, human FGFR4 kinase (Homo sapiens, UniProt P22455)", "T1 construct": "purchased Reaction Biology Corporation (Malvern, PA, USA), contract assay service", "T1 sequence (P22455 22-802)": "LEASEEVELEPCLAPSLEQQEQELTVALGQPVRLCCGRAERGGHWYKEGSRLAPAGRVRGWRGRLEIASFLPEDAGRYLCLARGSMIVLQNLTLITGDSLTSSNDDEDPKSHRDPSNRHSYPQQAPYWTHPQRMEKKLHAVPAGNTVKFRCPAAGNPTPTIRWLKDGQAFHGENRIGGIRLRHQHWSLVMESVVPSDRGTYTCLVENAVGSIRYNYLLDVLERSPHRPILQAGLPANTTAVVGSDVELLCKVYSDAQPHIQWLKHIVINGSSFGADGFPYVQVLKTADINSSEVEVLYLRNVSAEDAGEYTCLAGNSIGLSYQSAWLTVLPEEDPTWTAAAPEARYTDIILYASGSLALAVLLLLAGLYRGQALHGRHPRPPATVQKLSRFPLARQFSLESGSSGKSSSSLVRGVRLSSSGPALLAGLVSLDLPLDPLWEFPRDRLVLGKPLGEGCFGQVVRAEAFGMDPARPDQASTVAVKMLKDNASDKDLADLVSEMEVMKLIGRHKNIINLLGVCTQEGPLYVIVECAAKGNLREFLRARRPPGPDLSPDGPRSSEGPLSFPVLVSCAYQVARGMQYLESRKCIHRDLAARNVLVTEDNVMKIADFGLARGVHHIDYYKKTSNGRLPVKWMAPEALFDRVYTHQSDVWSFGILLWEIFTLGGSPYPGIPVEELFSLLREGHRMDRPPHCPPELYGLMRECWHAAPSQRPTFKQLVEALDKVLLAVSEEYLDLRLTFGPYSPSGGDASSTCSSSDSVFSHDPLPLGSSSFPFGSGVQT", "assay": "FGFR4 kinase assay (Kinase HotSpot, Reaction Biology Corp.)", "assay_type": "biochemical", "settings": "for inhibition at 1 µM: fixed concentration 1 μM, mean of two independent experiments; for inhibition at 0.01 µM: 0.01 μM concentration, two independent experiments", "experimental": "A FGFR4 kinase assay was performed at the Reaction Biology Corporation (Malvern, PA, USA) using a Kinase HotSpotSM assay platform (www.reactionbiology.com, last accessed at 19/10/2020). Briefly, human FGFR4 kinase (5–10 mU), peptide substrate, and poly[Glu:Tyr] (4:1) 0.2 mg/ml were prepared in a reaction buffer with a final volume of 25 µL. The compounds were delivered into the reaction, followed ∼20 min. later by the addition of a mixture of ATP and [γ-^33P-ATP] (specific activity approx. 500 cpm/pmol, concentration as required) to a final concentration of 10 µM. After incubation for 40 min. at 25 °C, the reaction was stopped by the addition of a 3% phosphoric acid solution. Then, the reaction was spotted onto a P30 filtermat, and unbound phosphate was removed by washing 3 times for 5 min in 75 mM phosphoric acid and once in methanol prior to drying and scintillation counting. […] IC50 values and curve fits were obtained using GraphPad Prism 5 software."}, "[2]": {"test_system": "Hep3B cells", "assay": "Cell proliferation assay (MTT), Hep3B", "assay_type": "cell-based, human", "experimental": "(§1) Human HCC cell lines, Hep3B and Huh7 were obtained from American Type Culture Collection (ATCC, Manassas, VA, USA). An H6c7 human normal pancreatic duct epithelial cell line was purchased from Kerafast (Boston, MA, USA). Hep3B and Huh7 cells were cultured in Dulbecco′s Modified Eagle′s Medium (DMEM) (Hyclone, Logan, UT, USA). The media were supplemented with 10% foetal bovine serum (FBS) (Gibco/ThermoFisher Scientific) and 1% penicillin/streptomycin (Gibco/ThermoFisher Scientific). H6c7 cells were maintained in a keratinocyte serum-free medium supplemented with a recombinant […] growth factor (rEGF) and bovine pituitary extract (Gibco/ThermoFisher Scientific). All the cells were incubated at 37 °C under a 5% CO2 atmosphere.\n(§2) Cells were seeded at a density of 5000 cells/well in a 96-well plate. After overnight incubation, the cells were serum-starved using 1% FBS for 24 h. The next day, the cells were pre-treated with the different concentrations (0.1, 1, 3, 10, 30, 100 µM) of drugs for 1 h prior to the treatment with serum (10% FBS). After 48 h of incubation, 3–(4,5-dimethylthiazol-2-yl)-2,5-diphenyltetrazolium bromide (MTT) dye solution was added and incubated for 4 h. Next, DMSO was added, and after 30 min, the colour intensities were measured using a microplate reader (Versamax, Molecular Devices, Inc., USA) at 490 nm."}, "[3]": {"test_system": "Hep3B-xenografted CAM tumour model", "assay": "CAM (chick chorioallantoic membrane) tumour model implanted with Hep3B cells", "assay_type": "in vivo", "experimental": "Fertile chicken eggs were purchased from Byeolbichon Farm (Gyeongbuk, South Korea) and incubated at 37 °C and under 55% relative humidity. On the 9th day of egg incubation (post-fertilization), false air sac was generated on the relatively flat side of eggs by a negative pressure technique. A small window (1 cm^2) was created on the false air sac surface of the eggs by separating the shell and membrane beneath (technique) using a grinding wheel (Dremel, Racine, WI, USA). Next, Hep3B cells were loaded at a density of 1.5 × 10^6 cells/CAM with or without compound. After four days of drug treatment, the tumour weight, number of vessel branch points within the tumour region were analysed."}, "[4]": {"test_system": "Huh7 cells", "assay": "Cell proliferation assay (MTT), Huh7", "assay_type": "cell-based, human", "experimental": "as §1, §2"}, "[5]": {"assay": "Cytotoxicity assay (MTT), H6c7", "assay_type": "cell-based", "settings": "human, H6c7 normal pancreatic duct epithelial cells, 48 h treatment, mean ± SEM of three independent experiments, read-out: IC50 on cell viability (cytotoxicity), H6c7", "experimental": "as §1\nThe cytotoxicity of the compounds was assessed by measuring the cell viability decrease using the MTT staining method. Briefly, H6c7 cells were seeded in a 96-well plate (Falcon, USA) at a density of 4 × 10^4 cells per well in keratinocyte serum-free medium. After 24 h, Cells were incubated with different concentrations (0.1, 1, 3, 10, 30, and 100) µM of each compound for 48 h, and the cell viability was measured using MTT assay. Optical density was measured at 540 nm using a microplate reader (BMG LABTECH)."}, "[6]": {"target": "T2, FGFR2 (Homo sapiens, UniProt P21802)", "T2 construct": "purchased Promega, WI, USA", "T2 sequence (P21802 22-821)": "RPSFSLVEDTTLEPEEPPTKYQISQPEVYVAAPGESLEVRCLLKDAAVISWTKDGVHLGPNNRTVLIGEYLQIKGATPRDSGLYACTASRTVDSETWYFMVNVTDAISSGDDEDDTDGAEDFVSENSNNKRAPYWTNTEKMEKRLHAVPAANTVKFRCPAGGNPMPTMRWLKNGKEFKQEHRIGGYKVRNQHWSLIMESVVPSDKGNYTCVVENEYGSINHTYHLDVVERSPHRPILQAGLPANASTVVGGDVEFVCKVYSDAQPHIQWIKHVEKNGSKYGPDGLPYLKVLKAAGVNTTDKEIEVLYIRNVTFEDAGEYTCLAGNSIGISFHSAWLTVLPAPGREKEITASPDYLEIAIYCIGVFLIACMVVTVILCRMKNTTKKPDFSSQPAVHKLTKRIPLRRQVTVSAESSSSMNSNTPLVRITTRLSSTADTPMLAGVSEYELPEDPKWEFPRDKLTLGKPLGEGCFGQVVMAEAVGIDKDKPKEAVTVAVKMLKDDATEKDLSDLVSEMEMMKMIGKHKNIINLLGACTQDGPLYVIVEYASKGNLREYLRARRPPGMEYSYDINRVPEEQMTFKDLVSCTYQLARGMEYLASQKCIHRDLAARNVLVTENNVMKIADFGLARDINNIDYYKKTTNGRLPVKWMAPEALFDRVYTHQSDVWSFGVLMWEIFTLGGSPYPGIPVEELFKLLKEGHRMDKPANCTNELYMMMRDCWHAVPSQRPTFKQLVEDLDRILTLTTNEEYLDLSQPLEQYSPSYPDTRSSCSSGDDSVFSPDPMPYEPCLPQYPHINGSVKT", "assay": "FGFR2 ADP-glow kinase assay", "assay_type": "biochemical", "experimental": "(§3) FGFR1 ∼ 3 kinase assays were performed using the adenosine diphosphate (ADP)-glow kinase assay kit of FGFR1, FGFR2, and FGFR3 kinase enzyme systems (Promega, WI, USA) in accordance with the manufacturer’s instructions. […] The reaction was carried out at 25 °C for 1 h in a total volume of 25 µL. Subsequently, 25 µL of ADP-Glow reagent was added to the mixture, and then incubated for 40 min at 25 °C. After the addition of 50 µL of ADP detection reagents for 30 min at 25 °C, luminescence was measured using a Fluostar Omega microplate reader (BMG LABTECH GmbH, Ortenberg, Germany)."}, "[7]": {"target": "T3, FGFR3 (Homo sapiens, UniProt P22607)", "T3 construct": "purchased Promega, WI, USA", "T3 sequence (P22607 23-806)": "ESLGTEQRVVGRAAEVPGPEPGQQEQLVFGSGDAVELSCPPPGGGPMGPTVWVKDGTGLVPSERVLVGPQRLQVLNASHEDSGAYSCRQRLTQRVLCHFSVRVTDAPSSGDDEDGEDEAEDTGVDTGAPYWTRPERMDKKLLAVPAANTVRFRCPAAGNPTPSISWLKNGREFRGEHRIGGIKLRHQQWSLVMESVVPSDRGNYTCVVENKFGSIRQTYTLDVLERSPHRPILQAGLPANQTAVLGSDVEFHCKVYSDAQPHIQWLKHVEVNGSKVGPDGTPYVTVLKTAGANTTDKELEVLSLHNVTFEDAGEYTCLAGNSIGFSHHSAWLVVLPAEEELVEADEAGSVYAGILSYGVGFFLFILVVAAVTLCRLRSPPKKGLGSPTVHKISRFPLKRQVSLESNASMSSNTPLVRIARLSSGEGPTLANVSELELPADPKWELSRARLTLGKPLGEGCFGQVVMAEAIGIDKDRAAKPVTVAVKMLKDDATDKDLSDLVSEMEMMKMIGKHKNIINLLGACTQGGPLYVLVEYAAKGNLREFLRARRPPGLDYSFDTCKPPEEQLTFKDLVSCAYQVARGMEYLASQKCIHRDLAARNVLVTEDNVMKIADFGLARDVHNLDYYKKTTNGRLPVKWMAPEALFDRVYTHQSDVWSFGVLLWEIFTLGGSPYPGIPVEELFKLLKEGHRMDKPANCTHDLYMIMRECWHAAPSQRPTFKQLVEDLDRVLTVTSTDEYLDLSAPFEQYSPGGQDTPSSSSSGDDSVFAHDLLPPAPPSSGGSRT", "assay": "FGFR3 ADP-glow kinase assay", "assay_type": "biochemical", "experimental": "as §3"}, "[8]": {"target": "T4, FGFR1 (Homo sapiens, UniProt P11362)", "T4 construct": "purchased Promega, WI, USA", "T4 sequence (P11362 22-822)": "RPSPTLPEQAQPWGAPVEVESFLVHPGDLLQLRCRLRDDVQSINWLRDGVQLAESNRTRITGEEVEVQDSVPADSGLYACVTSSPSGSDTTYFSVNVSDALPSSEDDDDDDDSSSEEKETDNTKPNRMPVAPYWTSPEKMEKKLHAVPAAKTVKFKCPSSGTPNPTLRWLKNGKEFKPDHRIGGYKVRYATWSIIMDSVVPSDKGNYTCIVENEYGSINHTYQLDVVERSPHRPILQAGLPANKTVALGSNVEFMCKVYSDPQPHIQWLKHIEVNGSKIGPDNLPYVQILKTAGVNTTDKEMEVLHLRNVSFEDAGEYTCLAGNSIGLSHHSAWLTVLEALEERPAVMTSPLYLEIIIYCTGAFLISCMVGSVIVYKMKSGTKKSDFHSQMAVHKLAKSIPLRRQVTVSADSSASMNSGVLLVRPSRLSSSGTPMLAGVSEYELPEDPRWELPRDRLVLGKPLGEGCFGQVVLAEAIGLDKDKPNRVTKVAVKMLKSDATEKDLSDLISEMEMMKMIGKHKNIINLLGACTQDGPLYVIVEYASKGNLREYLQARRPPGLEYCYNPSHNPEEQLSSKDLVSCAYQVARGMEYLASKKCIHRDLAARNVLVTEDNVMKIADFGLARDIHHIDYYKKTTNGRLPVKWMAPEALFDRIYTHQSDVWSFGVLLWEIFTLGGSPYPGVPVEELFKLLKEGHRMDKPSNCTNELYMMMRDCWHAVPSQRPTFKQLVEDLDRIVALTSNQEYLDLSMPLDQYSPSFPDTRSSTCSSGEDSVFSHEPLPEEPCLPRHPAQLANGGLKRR", "assay": "FGFR1 ADP-glow kinase assay", "assay_type": "biochemical", "experimental": "as §3"}, "[9]": {"settings": "four days after Hep3B xenograft on CAM"}, "[10]": {"settings": "number of new vessel branches on CAM, four days"}}, "data": [{"smiles": "C=CC(=O)Nc1cc(F)cc(Cl)c1Nc1nc(C)c(OCc2c(F)c(OC)cc(OC)c2F)c(C)c1C", "note": "[Compound 6M]", "values": [{"measurement": "inhibition at 1 µM", "setting": "[1]", "result": 9.9, "unit": "%"}]}, {"smiles": "C=CC(=O)Nc1cc(F)cc(Cl)c1Nc1nc(C)c(OCc2c(Cl)c(OC)cc(OC)c2Cl)c(C)c1C", "note": "[Compound 6N]", "values": [{"measurement": "inhibition at 1 µM", "setting": "[1]", "result": 11.9, "unit": "%"}]}, {"smiles": "C=CC(=O)Nc1cc(F)cc(Cl)c1Nc1nc(C)c(OCc2c(F)c(OC)cc(OC)c2F)c(C)n1", "note": "[Compound 6O, N-(3-Chloro-2-((5-((2,6-difluoro-3,5-dimethoxybenzyl)oxy)-4,6-dimethylpyrimidin-2-yl)amino)-5-fluorophenyl)acrylamide]", "values": [{"measurement": "fold less potent than compound 1, Hep3B IC50", "setting": "[2]; 48 h", "result": 5, "unit": "fold"}, {"measurement": "IC50", "setting": "[2]; Homo sapiens, Hep3B, 48 h treatment, mean ± SEM of three independent experiments", "result": 4.5, "unit": "µM"}, {"measurement": "IC50", "setting": "[1]; 7 different concentrations, three independent experiments", "result": 0.0753, "unit": "µM"}, {"measurement": "inhibition at 1 µM", "setting": "[1]", "result": 96.7, "unit": "%"}, {"measurement": "FGFR4 selectivity compared to BLU9931 (1)", "setting": "[1]; from Table 1 ratios", "result": "at least 8 times"}, {"measurement": "inhibitory effect on the tumour weight compared with compound 1", "setting": "[3]; [9]", "result": "slightly weaker"}, {"measurement": "tumour growth", "setting": "[3]; [9]", "result": "dose-dependently inhibited"}, {"measurement": "antiangiogenic effect compared with compound 1", "setting": "[3]; [10]", "result": "slightly weaker"}, {"measurement": "tumour-induced angiogenesis", "setting": "[3]; [10]", "result": "significantly blocked"}, {"measurement": "IC50", "setting": "[4]; Homo sapiens, Huh-7, 48 h treatment, mean ± SEM of three independent experiments", "result": "12.6 ± 1.3", "unit": "µM"}, {"measurement": "difference of anti-proliferative activity between Hep3B and Huh7", "setting": "[4]; Huh7 versus Hep3B, 48 h", "result": 2.8, "unit": "fold"}, {"measurement": "IC50 at 48 h", "setting": "[5]", "result": 18, "unit": "µM"}, {"measurement": "Ratio against FGFR4 (FGFR2)", "setting": "[6]; ratio of FGFR2 to FGFR4 inhibitory activity", "result": 471.1}, {"measurement": "IC50", "setting": "[6]; three independent experiments", "result": 35.5, "unit": "µM"}, {"measurement": "Ratio against FGFR4 (FGFR3)", "setting": "[7]; ratio of FGFR3 to FGFR4 inhibitory activity", "result": "> 398.3"}, {"measurement": "IC50", "setting": "[7]; three independent experiments", "result": "> 30", "unit": "µM"}, {"measurement": "Ratio against FGFR4 (FGFR1)", "setting": "[8]; ratio of FGFR1 to FGFR4 inhibitory activity", "result": "> 663.8"}, {"measurement": "IC50", "setting": "[8]; three independent experiments", "result": "> 50", "unit": "µM"}]}, {"smiles": "C=CC(=O)Nc1cc(F)cc(Cl)c1Nc1nc(C)c(OCc2c(Cl)c(OC)cc(OC)c2Cl)c(C)n1", "note": "[Compound 6P]", "values": [{"measurement": "inhibition at 1 µM", "setting": "[1]", "result": 12.8, "unit": "%"}]}, {"smiles": "C=CC(=O)Nc1cccc(OC)c1Nc1nc(C)c(OCc2c(F)c(OC)cc(OC)c2F)c(C)c1C", "note": "[Compound 6Q]", "values": [{"measurement": "inhibition at 1 µM", "setting": "[1]", "result": 10.3, "unit": "%"}]}, {"smiles": "C=CC(=O)Nc1cccc(OC)c1Nc1nc(C)c(OCc2c(Cl)c(OC)cc(OC)c2Cl)c(C)c1C", "note": "[Compound 6R]", "values": [{"measurement": "inhibition at 1 µM", "setting": "[1]", "result": 6.9, "unit": "%"}]}, {"smiles": "C=CC(=O)Nc1cccc(OC)c1Nc1nc(C)c(OCc2c(F)c(OC)cc(OC)c2F)c(C)n1", "note": "[Compound 6S]", "values": [{"measurement": "inhibition at 1 µM", "setting": "[1]", "result": 49.3, "unit": "%"}]}, {"smiles": "C=CC(=O)Nc1cccc(OC)c1Nc1nc(C)c(OCc2c(Cl)c(OC)cc(OC)c2Cl)c(C)n1", "note": "[Compound 6T]", "values": [{"measurement": "inhibition at 1 µM", "setting": "[1]", "result": 11, "unit": "%"}]}, {"smiles": "C=CC(=O)Nc1ccc(OC)cc1Nc1nc(C)c(OCc2c(F)c(OC)cc(OC)c2F)c(C)c1C", "note": "[Compound 6U]", "values": [{"measurement": "inhibition at 1 µM", "setting": "[1]", "result": 10.1, "unit": "%"}]}, {"smiles": "C=CC(=O)Nc1ccc(OC)cc1Nc1nc(C)c(OCc2c(Cl)c(OC)cc(OC)c2Cl)c(C)c1C", "note": "[Compound 6V]", "values": [{"measurement": "inhibition at 1 µM", "setting": "[1]", "result": 7.7, "unit": "%"}]}, {"smiles": "C=CC(=O)Nc1ccc(OC)cc1Nc1nc(C)c(OCc2c(F)c(OC)cc(OC)c2F)c(C)n1", "note": "[Compound 6W]", "values": [{"measurement": "inhibition at 1 µM", "setting": "[1]", "result": 12.2, "unit": "%"}]}, {"smiles": "C=CC(=O)Nc1ccc(OC)cc1Nc1nc(C)c(OCc2c(Cl)c(OC)cc(OC)c2Cl)c(C)n1", "note": "[Compound 6X]", "values": [{"measurement": "inhibition at 1 µM", "setting": "[1]", "result": 6.3, "unit": "%"}]}, {"smiles": "C=CC(=O)Nc1ccc(N2CCN(CC)CC2)cc1Nc1nc(C)c(OCc2c(F)c(OC)cc(OC)c2F)c(C)c1C", "note": "[Compound 6Y]", "values": [{"measurement": "inhibition at 1 µM", "setting": "[1]", "result": 10.4, "unit": "%"}]}, {"smiles": "C=CC(=O)Nc1ccc(N2CCN(CC)CC2)cc1Nc1nc(C)c(OCc2c(Cl)c(OC)cc(OC)c2Cl)c(C)c1C", "note": "[Compound 6Z]", "values": [{"measurement": "inhibition at 1 µM", "setting": "[1]", "result": 2.7, "unit": "%"}]}, {"smiles": "C=CC(=O)Nc1cccc(C)c1Nc1ccc(OCc2c(F)c(OC)cc(OC)c2F)cn1", "note": "[Compound 41, reference compound]", "values": [{"measurement": "inhibition at 0.01 µM", "setting": "[1]", "result": 91, "unit": "%"}]}, {"smiles": "C=CC(=O)Nc1cccc(C)c1Nc1ncc(OCc2c(F)c(OC)cc(OC)c2F)cn1", "note": "[Compound 42, reference compound]", "values": [{"measurement": "inhibition at 0.01 µM", "setting": "[1]", "result": 87.4, "unit": "%"}]}]}
